For 36 compounds, responders and ED50 results are on record in US9937145B2, “Sulfamate derivative compound for use in preventing or treating epilepsy” (Bio-Pharm Solutions Co., Ltd., priority 2013, dated 2018).

Where two headings read alike, the source gives them in different places.

The subject of this assay is male ICR mice. Briefly: MES test (anti-epilepsy activity), mice, oral (mMES po). As to conditions: Mus musculus; for responders at 100 mg/kg: injection amount 100 mg/kg; for responders at 80 mg/kg: injection amount 80 mg/kg; for responders at 30 mg/kg: injection amount 30 mg/kg; for responders at 50 mg/kg: injection amount 50 mg/kg; for ED50: mice, at peak time. Type of assay: in vivo. Here is the method: Biological Experimental Example. 1: Measurement of Anti-Epilepsy Activity (MES-Test)
In the MES test (Ref., G. Villetti et al. Neuropharmacology 40(2001) 866-878), an electrical stimulus (mice: 50 mA, 60 Hz, 0.2 sec, and rats: 150 mA, 60 Hz, 0.2 sec in the test animal) supplied by an 11 A Shocker (IITC Life Science Company) was delivered through corneal electrodes. All mice or rats assigned to any electroshock at peak time were treated with each test compound sample which was dissolved in 20% tween 80 prepared by saline solvent applied orally before the test. […] Three doses of the test sample were administered orally to 9-18 animals (3-6 mice per dose) for evaluating the respective doses at which 50% of the animals were protected from seizure (ED50). The ED50 value (median effective close) was calculated by Litchfield and Wicoxon log-probit method which is a dose-response relationship. Experimental animals, male ICR mice and male SD rats, were purchased from OrientBio, Samtako, or Nara Biotech, Korea, and housed in cages (4-5 mice or 3 rats per cage) for 4-5 days. The range of mice body weight was between 19 and 25 grams and range of rats body weight was between 100 and 130 grams.
The obtained results are shown as mean±sem. The difference between the groups was statistically analyzed by ANOVA, and then further examined by Dunnett's test or Bonferroni test. If p is less than 0.05, it was determined that the difference between the groups had statistical significance.
The results of anti-epileptic activity of the sulfamate derivative compounds measured in the above Experimental Example are shown in the following Tables 4 and 5.

[1] abbreviates: 3 mice, read-out: mMES(po) Protection %.

Consider `CC1(C)OC(COS(N)(=O)=O)C(c2cncnc2)O1` (stereo not drawn) [Example 175], for which the responders at 100 mg/kg under setting [1] is 100%. On the same count and under the same terms, with `CC1(C)O[C@H](COS(N)(=O)=O)[C@H](c2ccccc2Cl)O1` [Example 161, ((4R, 5S)-5-(2-chlorophenyl)-2,2-dimethyl-1,3-dioxolan-4-yl)methyl sulfamate] the figure was 100%. As for `NS(=O)(=O)OCC[C@H]1OC2(CCCCC2)O[C@@H]1Cc1ccccc1` [Example 120, 2-((2R, 3R)-3-benzyl-1,4-dioxaspiro[4,5]decane-2-yl)ethyl sulfamate], the responders at 80 mg/kg under setting [1] is 66.6%.

On to `CCC1(CC)O[C@@H](CCOS(N)(=O)=O)[C@H](c2ccccc2)O1` [Example 132, 2-((4S, 5S)-5-phenyl-2,2-diethyl-1,3-dioxolan-4-yl)ethyl sulfamate], for which the responders at 80 mg/kg under setting [1] was determined as 33.3%.

For the compound `NS(=O)(=O)OCC[C@@H]1OC2(CCCCC2)O[C@H]1c1ccccc1Cl` [Example 160, 2-((2S, 3S)-3-(2-chlorophenyl)-1,4-dioxaspiro[4,5]decan-2-yl)ethyl sulfamate], under setting [1], the responders at 80 mg/kg amounted to 66.6%. For the compound `NS(=O)(=O)OC[C@@H]1OC2(CCCC2)O[C@H]1c1ccccc1Cl` [Example 10, ((2S, 3 S)-3-(2-chlorophenyl)-1,4-dioxaspiro[4,4]nonan-2-yl)methyl sulfamate], the responders at 30 mg/kg under setting [1] amounted to 66%.

Consider `NS(=O)(=O)OC[C@@H]1OC2(CCCCC2)O[C@H]1c1ccccc1` [Example 112, ((2S, 3S)-3-phenyl-1,4-dioxaspiro[4,5]decan-2-yl)methyl sulfamate], for which the responders at 50 mg/kg under setting [1] was 100%. As for `CC1(C)O[C@@H](CCOS(N)(=O)=O)[C@H](c2ccccc2Cl)O1` [Example 154, 2-((4S, 5S)-5-(2-chlorophenyl)-2,2-dimethyl-1,3-dioxolan-4-yl)ethyl sulfamate], under setting [1], the responders at 50 mg/kg came out at 100%. Take `CC1(C)O[C@@H](COS(N)(=O)=O)[C@H](c2ccc(Cl)cc2Cl)O1` [Example 40, ((4S, 5S)-5-(2,4-dichlorophenyl)-2,2-dimethyl-1,3-dioxolan-4-yl)methyl sulfamate]: the 50% effect level (ED50) was put at a dose of 49.2 mg/kg. In the case of `CC1(C)OC(COS(N)(=O)=O)C(c2ccccc2Cl)O1` (mixture of isomers) [Example 3, (5-(2-chlorophenyl)-2,2-dimethyl-1,3-dioxolan-4-yl)methyl sulfamate(SS & RR mixture)], the 50% effect level (ED50) was put at a dose of 14 mg/kg. `CC1(C)OC(COS(N)(=O)=O)C(c2cnccc2Cl)O1` (stereo not drawn) [Example 174, (5-(4-chloropyridin-3-yl)-2,2-dimethyl-1,3-dioxolan-4-yl)methylsulfamate]: under setting [1], the responders at 100 mg/kg stood at 100%. In the case of `Nc1ccccc1[C@@H]1OC2(CCCCC2)O[C@H]1COS(N)(=O)=O` [Example 74, ((2S, 3S)-3-(2-aminophenyl)-1,4-dioxaspiro[4,5]decan-2-yl)methyl sulfamate], the ED50 came out at 14.5 mg/kg. For the compound `CC1(C)O[C@@H](COS(N)(=O)=O)[C@H](c2ccccc2)O1` [Example 106, ((4S, 5S)-5-phenyl-2,2-dimethyl-1,3-dioxolan-4-yl)methyl sulfamate], the responders at 30 mg/kg under setting [1] was 100%. Take `CC1(C)O[C@H](CCOS(N)(=O)=O)[C@@H](Cc2ccccc2Cl)O1` [Example 138, 2-((4R, 5R)-5-(2-chlorobenzyl)-2,2-dimethyl-1,3-dioxolan-4-yl)ethyl sulfamate]: under setting [1], the responders at 80 mg/kg was found to be 33.3%. For the compound `NS(=O)(=O)OC[C@@H]1OC2(CCCC2)O[C@H]1c1ccccc1` [Example 110, ((2S, 3S)-3-phenyl-1,4-dioxaspiro[4,4]nonan-2-yl)methyl sulfamate], the responders at 9 mg/kg (injection amount 9 mg/kg, 3 mice, read-out: mMES(po) Protection %) turned out to be 33.3%.

Turning to `CNc1ccccc1[C@@H]1OC(C)(C)O[C@H]1COS(=O)(=O)NC` [Example 104, ((4S, 5S)-5-(2-methylaminophenyl)-2,2-dimethyl-1,3-dioxolan-4-yl)methyl methylsulfamate], the responders at 50 mg/kg under setting [1] turned out to be 66.6%. For the compound `NS(=O)(=O)OCC[C@@H]1OC2(CCCC2)O[C@H]1c1ccccc1Cl` [Example 158, 2-((2S, 3S)-3-(2-chlorophenyl)-1,4-dioxaspiro[4,4]nonan-2-yl)ethyl sulfamate], the responders at 50 mg/kg under setting [1] is 100%. With `CCC1(CC)O[C@@H](COS(N)(=O)=O)[C@H](c2ccccc2)O1` [Example 108, ((4S, 5S)-5-phenyl-2,2-diethyl-1,3-dioxolan-4-yl)methyl sulfamate], the responders at 50 mg/kg under setting [1] is 100%.

`Nc1ccccc1[C@@H]1OC(c2ccccc2)O[C@H]1COS(N)(=O)=O` (stereo partly drawn) [Example 76, ((4S, 5S)-5-(2-aminophenyl)-2-phenyl-1,3-dioxolan-4-yl)methyl sulfamate]: the responders at 50 mg/kg under setting [1] was 66%.

For the compound `CC1(C)O[C@@H](COS(N)(=O)=O)[C@H](c2c(Cl)cccc2Cl)O1` [Example 52, ((4S, 5S)-5-(2,6-dichlorophenyl)-2,2-dimethyl-1,3-dioxolan-4-yl)methyl sulfamate], the responders at 50 mg/kg under setting [1] was 100%.

As to `NS(=O)(=O)OC[C@H]1OC2(CCCC2)O[C@@H]1Cc1ccccc1` [Example 126, ((2R, 3R)-3-benzyl-1,4-dioxaspiro[4,4]nonan-2-yl)methyl sulfamate], the responders at 50 mg/kg under setting [1] was found to be 100%. As for `CCC1(CC)O[C@@H](CCOS(N)(=O)=O)[C@H](c2ccccc2Cl)O1` [Example 156, 2-((4S, 5S)-5-(2-chlorophenyl)-2,2-diethyl-1,3-dioxolan-4-yl)ethyl sulfamate], the responders at 80 mg/kg under setting [1] is 100%.

For `CC1(C)O[C@@H](CCOS(N)(=O)=O)[C@H](c2ccccc2)O1` [Example 130, 2-((4S, 5S)-5-phenyl-2,2-dimethyl-1,3-dioxolan-4-yl)ethyl sulfamate], under setting [1], the responders at 50 mg/kg came to 33.3%. Regarding `NS(=O)(=O)OC[C@@H]1OC2(CCCCC2)O[C@H]1c1ccccc1Cl` [Example 12, ((2S, 3S)-3-(2-chlorophenyl)-1,4-dioxaspiro[4,5]decan-2-yl)methyl sulfamate], where the note is “4 mice, read-out: mMES(po) Protection %”, the responders at 50 mg/kg came out at 100%. Regarding `CCC1(CC)O[C@H](COS(N)(=O)=O)[C@@H](Cc2ccccc2Cl)O1` [Example 148, ((4R, 5R)-5-(2-chlorobenzyl)-2,2-diethyl-1,3-dioxolan-4-yl)methyl sulfamate], under setting [1], the responders at 50 mg/kg was found to be 33.3%. Consider `CC1(C)O[C@@H](COS(N)(=O)=O)[C@@H](c2ccccc2Cl)O1` [Example 162, ((4S, 5R)-5-(2-chlorophenyl)-2,2-dimethyl-1,3-dioxolan-4-yl)methyl sulfamate], for which the responders at 100 mg/kg under setting [1] is 100%.

`Cc1ccccc1[C@@H]1OC(C)(C)O[C@H]1COS(N)(=O)=O` [Example 92, ((4S, 5S)-5-(2-methylphenyl)-2,2-dimethyl-1,3-dioxolan-4-yl)methyl sulfamate]: under setting [1], the responders at 50 mg/kg worked out at 100%. Consider `CC1(C)OC(COS(N)(=O)=O)C(c2cnc(Cl)nc2)O1` (stereo not drawn) [Example 176, (2,2-dimethyl-5-(2-chloropyrimidin-5-yl)-1,3-dioxolan-4-yl)methylsulfamate], for which, under setting [1], the responders at 100 mg/kg was 100%. For `NS(=O)(=O)OCC[C@@H]1OC2(CCCCC2)O[C@H]1c1ccccc1` [Example 136, 2-((2S, 3S)-3-phenyl-1,4-dioxaspiro[4,5]decan-2-yl)ethyl sulfamate], the responders at 50 mg/kg under setting [1] amounted to 100%. In the case of `CC1(C)OC(COS(N)(=O)=O)C(c2ccncc2Cl)O1` (stereo not drawn) [Example 173, (5-(3-chloropyridin-4-yl)-2,2-dimethyl-1,3-dioxolan-4-yl)methylsulfamate], under setting [1], the responders at 100 mg/kg was 100%. With `CC1O[C@@H](COS(N)(=O)=O)[C@H](c2ccccc2Cl)O1` (stereo partly drawn) [Example 6, ((4S, 5S)-5-(2-chlorophenyl)-2-methyl-1,3-dioxolan-4-yl)methyl sulfamate], under setting [1], the responders at 50 mg/kg was found to be 33%.

With `NS(=O)(=O)OCC[C@H]1OC2(CCCC2)O[C@@H]1Cc1ccccc1Cl` [Example 142, 2-((2R, 3R)-3-(2-chlorobenzyl)-1,4-dioxaspiro[4,4]nonan-2-yl)ethyl sulfamate], the responders at 80 mg/kg under setting [1] stood at 33.3%. Turning to `NS(=O)(=O)OC[C@H]1OC2(CCCCC2)O[C@@H]1Cc1ccccc1Cl` [Example 152, ((2R, 3R)-3-(2-chlorobenzyl)-1,4-dioxaspiro[4,5]decan-2-yl)methyl sulfamate], under setting [1], the responders at 50 mg/kg was found to be 66.6%. With `CC1(C)O[C@H](COS(N)(=O)=O)[C@@H](Cc2ccccc2Cl)O1` [Example 146, ((4R, 5R)-5-(2-chlorobenzyl)-2,2-dimethyl-1,3-dioxolan-4-yl)methyl sulfamate], the responders at 50 mg/kg under setting [1] is 66.6%.

On to `CC1(C)O[C@H](c2ccccc2I)[C@@H](COS(N)(=O)=O)O1` [Example 27, ((4R, 5R)-5-(2-iodophenyl)-2,2-dimethyl-1,3-dioxolan-4-yl)methyl sulfamate], for which the ED50 came out at 27.6 mg/kg. In the case of `CCC1(CC)O[C@@H](COS(N)(=O)=O)[C@H](c2ccccc2N)O1` [Example 70, ((4S, 5S)-5-(2-aminophenyl)-2,2-diethyl-1,3-dioxolan-4-yl)methyl sulfamate], under setting [1], the responders at 50 mg/kg worked out at 100%.
